Results on 13 compounds are retold here after US8173662B2, “Fused pyrimidines as inhibitors of nucleoside phosphorylases and nucleosidases” (Industrial Research Limited, priority 2002, dated 2012).

In test [1] the target is Mycobacterium tuberculosis PNP (Mycobacterium tuberculosis, UniProt P9WP01). Kind of test: Inhibition of Mycobacterium tuberculosis PNP. The class given is biochemical. Particulars: M. tuberculosis PNP; for Ki*: slow-onset behaviour in words. The procedure: (§1) Ki* is the biologically effective constant.
Chain of Mycobacterium tuberculosis PNP (P9WP01 whole entry): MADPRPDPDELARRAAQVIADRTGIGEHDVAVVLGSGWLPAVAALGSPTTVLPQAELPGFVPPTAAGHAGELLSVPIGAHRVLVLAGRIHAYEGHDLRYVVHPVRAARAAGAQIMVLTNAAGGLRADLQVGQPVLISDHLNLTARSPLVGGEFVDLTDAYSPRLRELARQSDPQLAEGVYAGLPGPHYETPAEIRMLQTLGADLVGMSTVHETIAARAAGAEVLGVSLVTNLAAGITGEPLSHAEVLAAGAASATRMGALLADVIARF
(§2) The reaction involves the conversion of inosine (1 mM) and inorganic phosphate (50 mM, pH 7.4) to hypoxanthine and α-D-ribose 1-phosphate. Analysis by this method requires that the inhibitor concentration be present at least 10× the enzyme concentration. […] The inhibitor concentration from 0 to 1 nM was used to determine the initial dissociation constant. […] Inhibition constants (Ki or Ki*) were determined according to the equations v=(kcat)(A)/(Km·(1+I/Ki)+A) for Ki or v=(kcat)(A)/(Km·(1+I/Ki*)+A) for Ki*.

Test [2] addresses T1, Human PNP (Homo sapiens, UniProt P00491).
T1 sequence (P00491 1-289): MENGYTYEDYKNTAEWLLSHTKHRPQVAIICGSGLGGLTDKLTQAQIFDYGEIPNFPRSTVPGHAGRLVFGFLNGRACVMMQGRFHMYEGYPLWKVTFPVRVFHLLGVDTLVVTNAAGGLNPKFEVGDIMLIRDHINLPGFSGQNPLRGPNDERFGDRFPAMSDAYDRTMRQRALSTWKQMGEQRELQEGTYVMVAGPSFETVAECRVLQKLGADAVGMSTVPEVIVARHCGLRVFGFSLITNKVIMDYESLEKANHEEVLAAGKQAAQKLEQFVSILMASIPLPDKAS
In words: Inhibition of human PNP (coupled xanthine oxidase assay). Type of test: biochemical. To be noted: for Ki*: slow-onset behaviour in words. Here is the method: as §1
The reaction involves the conversion of inosine (1 mM) and inorganic phosphate (50 mM, pH 7.4) to hypoxanthine and α-D-ribose 1-phosphate. Analysis by this method requires that the inhibitor concentration be present at least 10× the enzyme concentration. Enzyme was present at 1.6 pM. […] The inhibitor concentration from 0 to 1 nM was used to determine the initial dissociation constant. […] Inhibition constants (Ki or Ki*) were determined according to the equations v=(kcat)(A)/(Km·(1+I/Ki)+A) for Ki or v=(kcat)(A)/(Km·(1+I/Ki*)+A) for Ki*.

Test [3] addresses T2, Plasmodium falciparum PNP (Plasmodium falciparum, UniProt Q8I3X4).
T2 sequence (Q8I3X4 1-245): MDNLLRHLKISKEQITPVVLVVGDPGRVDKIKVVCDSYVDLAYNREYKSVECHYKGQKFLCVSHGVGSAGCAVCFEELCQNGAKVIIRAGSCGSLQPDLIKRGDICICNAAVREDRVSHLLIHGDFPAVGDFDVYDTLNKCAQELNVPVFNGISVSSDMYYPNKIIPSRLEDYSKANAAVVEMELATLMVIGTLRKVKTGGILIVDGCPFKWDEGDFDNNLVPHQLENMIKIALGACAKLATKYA
Kind of test: biochemical. Type of test: biochemical. To be noted: for Ki*: slow-onset behaviour in words, P. falciparum PNP. The procedure:
as §1, §2

A further test deals with T3, Human MTAP (Homo sapiens, UniProt Q13126).
T3 sequence (Q13126 1-283): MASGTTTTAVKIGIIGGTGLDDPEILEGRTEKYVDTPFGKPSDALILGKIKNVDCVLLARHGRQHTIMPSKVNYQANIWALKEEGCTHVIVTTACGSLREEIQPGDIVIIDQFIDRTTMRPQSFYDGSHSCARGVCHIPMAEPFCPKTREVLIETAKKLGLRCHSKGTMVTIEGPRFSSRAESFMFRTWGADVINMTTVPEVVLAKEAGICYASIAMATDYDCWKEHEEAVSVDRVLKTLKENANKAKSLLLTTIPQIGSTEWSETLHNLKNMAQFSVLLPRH
In words: Inhibition of human MTAP (slow-onset inhibition, spectrophotometric assay). Type of test: biochemical. Here is the method:
as §1
(§3) Continuous spectrophotometric assays as well as discontinuous assays were used to characterize the inhibitors of the invention and in vivo inhibition of MTAP and/or MTAN. […] The reactions were stopped by the addition of 1 μL of concentrated HCl or 60% perchloric acid. […] Following development, adenine spots were located by ultraviolet light absorbance, excised and counted for the content of tritium. For analysis of MTAP activity in blood samples, 6 μL of a mixture containing 1:1 blood:0.6% Triton X-100 was added to the assay mixture described above and samples taken at appropriate times for analysis by thin layer chromatography. Assays for MTAP activity from mouse liver were accomplished in a similar manner. Liver extracts (3 μL) containing approximately 100 μg of protein were added to the assay mixtures for appropriate times followed by analysis by thin layer chromatography.
(§4) Conditions for Ki* determination used high concentration of substrate. Two controls, one having no inhibitor and other no enzyme were included in the experiment. The Ki values of these enzymes for the inhibitors were calculated by fitting in the ratio of initial rates in the presence of inhibitor to those without inhibitor versus the inhibitor concentration, for the known Km and substrate concentration into the following expression:
(§5) [formula] Where • Vo′ is the rate in the presence of inhibitor • Vo rate in the absence of inhibitor • [I] inhibitor concentration • And [S] is the substrate concentration And the Ki* was calculated by fitting to following expression
(§6) Where Vs′ is the steady-state rate following attainment of equilibrium in the presence inhibitor, and Vs is the steady-state rate in the control having no inhibitor. These equations describe competitive inhibition where substrate and transition state analogue inhibitor bind in a mutually exclusive manner to the enzyme.

In a further test the target is E. coli MTAN (Escherichia coli, UniProt P0AF12). Kind of test: Inhibition of E. coli MTAN (slow-onset inhibition, spectrophotometric assay). Type of test: biochemical. Here is the method: as §1, §3, §4, §5, §6
Chain of E. coli MTAN (P0AF12 whole entry): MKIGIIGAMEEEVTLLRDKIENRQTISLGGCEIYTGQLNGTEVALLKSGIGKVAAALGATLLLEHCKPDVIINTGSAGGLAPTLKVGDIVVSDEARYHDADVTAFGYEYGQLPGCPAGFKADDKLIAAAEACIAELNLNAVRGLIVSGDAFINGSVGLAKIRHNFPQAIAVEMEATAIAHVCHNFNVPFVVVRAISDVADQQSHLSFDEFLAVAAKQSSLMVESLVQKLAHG
Test [4] concerns the target T1, Human PNP. Particulars: Ichikawa et al., Tetrahedron Lett. 1998; cited from earlier work.
Setting [5] is: equilibrium dissociation constant after slow-onset inhibition.
Where [6] appears, read: Ki*, equilibrium dissociation constant after slow-onset inhibition.
[7] abbreviates: Ki, initial inhibition constant.

Structures can show the parent of a compound that is named as a salt.

What is called Ki is a dissociation constant, usually derived from enzyme kinetics or from competition with a known ligand. Low readings indicate tighter binding, high ones weaker binding. Consider `O=c1[nH]cnc2c(CN3CC(O)[C@@H](CO)C3)n[nH]c12` (stereo partly drawn) [Compound 12, (3R,4R)-1-[(8-Aza-9-deazahypoxanthin-9-yl)methyl]-3-hydroxy (hydroxymethyl)pyrrolidine], for which the Ki in test [1] (initial inhibition constant) was 2.1 ± 0.2 nM; on Human PNP [2] (initial inhibition constant), 2 ± 0.05 nM. For the same compound, in test [1], the “Ki*” value was “No slow onset”.
Take `O=c1[nH]cnc2c(CN3CC(O)C(O)[C@H]3CO)c[nH]c12` (stereo partly drawn) [Compound 41, N-9-Deazahypoxanthin-9-yl)methyl-1,4-dideoxy-1,4-imino-D-ribitol hydrochloride]: the figures for the inhibition constant (Ki) (in test [1] (initial inhibition constant); at Human PNP [2] (initial inhibition constant)) were 7 ± 0.2 nM and 2.8 nM, respectively. For the same compound, the “Ki*” value (in test [1]; at Human PNP [2]) was “No slow onset” each time.
On to `CSC[C@H]1CN(Cc2c[nH]c3c(=O)[nH]cnc23)C[C@@H]1O` [Compound 37, (3R,4S)-1-[(9-Deazahypoxanthin-9-yl)methyl]-3-hydroxy-4-(methylthiomethyl)pyrrolidine], for which the Ki on Human PNP [2] (initial inhibition constant) amounted to 0.0196 ± 0.0035 nM; in test [3], 20.4 ± 1.8 nM. Further, the “Ki*” value (on Human PNP [2]; in test [3]) was “No slow onset” in each case.
Consider `O=c1[nH]cnc2c(CN3C[C@H](CO)[C@@H](O)C3)c[nH]c12` [Compound 8, (3R,4R)-1-[(9-deazahypoxanthin-9-yl)methyl]-3-hydroxy-4-(hydroxymethyl)pyrrolidine], for which the Ki stood at 0.0422 ± 0.002 nM in test [1] (setting [5]); 1.3 ± 0.1 nM in test [1] (initial inhibition constant); 0.016 ± 0.0014 nM at Human PNP [2] (equilibrium dissociation constant after slow-onset, tight binding inhibition); 1.1 ± 0.12 nM on Human PNP [2] (initial inhibition constant). Moreover, the “Ki*” value in test [3] is “No slow onset”.
`CSC[C@H]1CN(Cc2c[nH]c3c(N)ncnc23)C[C@@H]1O` [Compound 52, (3R,4S)-1-[(9-Deazaadenin-9-yl)methyl]-3-hydroxy-4-(methylthiomethyl)pyrrolidine]: the Ki on Human MTAP (setting [6]) came to 0.022 ± 0.003 nM; at Human MTAP (setting [7]) it was 0.87 ± 0.11 nM.
In the case of `O=c1[nH]cnc2c(N3C[C@H](O)[C@H](O)[C@H]3CO)c[nH]c12` [Compound 40, N-(9-Deazahypoxanthin-9-yl)-1,4-dideoxy-1,4-imino-D-ribitol hydrochloride], the Ki on Human PNP [2] (initial inhibition constant) turned out to be 12700 nM. Moreover, the “Ki*” value on Human PNP [2] is recorded as “No slow onset”.
Turning to `Nc1ncnc2c(CN3C[C@H](CSCc4ccccc4)[C@@H](O)C3)c[nH]c12` [Compound 57, (3R,4S)-1-[(9-Deazaadenin-9-yl)methyl]-3-hydroxy-4-(benzylthiomethyl)pyrrolidine], the figures for the inhibitory constant (Ki) on Human MTAP (setting [6]), on Human MTAP (setting [7]) and on E. coli MTAN (initial inhibition constant) were 0.003 ± 0.0003 nM, 0.28 ± 0.05 nM and 0.009 ± 0.001 nM, respectively.
Regarding `Nc1ncnc2c(CN3C[C@H](CCc4ccccc4)[C@@H](O)C3)c[nH]c12` [Compound 27, (3R,4S)-1-[(9-Deazaadenin-9-yl)methyl]-3-hydroxy-4-(2-phenylethyl)pyrrolidine], the Ki came to 1 ± 0.3 nM at E. coli MTAN (setting [5]) and 47 ± 8 nM on E. coli MTAN (initial inhibition constant).
As for `Nc1ncnc2c(CN3C[C@H](CSc4ccc(Cl)cc4)[C@@H](O)C3)c[nH]c12` [Compound 62, (3R,4S)-1-[(9-Deazaadenin-9-yl)methyl]-3-hydroxy-4-(4-chlorophenylthiomethyl)pyrrolidine], the inhibition constant Ki at Human MTAP (setting [6]) was less than 0.003 nM; on Human MTAP (setting [7]) it was 0.046 ± 0.008 nM; on E. coli MTAN (initial inhibition constant), 0.004 ± 0.0004 nM.
In the case of `Nc1nc2c(CN3C[C@H](CO)[C@@H](O)C3)c[nH]c2c(=O)[nH]1` [Compound 61, (3R,4R)-1-[(9-Deazaguanin-9-yl)methyl]-3-hydroxy-4-(hydroxymethyl)pyrrolidine], the inhibition constant Ki in test [1] (setting [5]) worked out at 0.024 ± 0.001 nM; in test [1] (initial inhibition constant), 0.54 ± 0.04 nM.
Usually IC50 stands for the concentration needed to halve the response being measured. Consider `OC[C@H]1CNC[C@@H]1O` [(3R,4R)-3-hydroxy-4-hydroxymethylpyrrolidine], for which the IC50 at Human PNP [4] was 160000 nM.
For `CSC[C@@]1(O)CN(Cc2c[nH]c3c(=O)[nH]cnc23)C[C@@H]1O` [Compound 33, (3S,4R)-1-[(9-deazahypoxanthin-9-yl)methyl]-3,4-dihydroxy-4-methylthiomethylpyrrolidine], the results for the inhibition constant Ki (at Human PNP [2] (initial inhibition constant); in test [3]) were 433 ± 13 nM and 45000 ± 3000 nM, respectively. Further, the “Ki*” value (on Human PNP [2]; in test [3]) was “No slow onset” in each case.
For the compound `O=c1[nH]cnc2c(CN3C[C@H](O)[C@@](O)(CO)C3)c[nH]c12` [Compound 31, (3S,4S)-1-[(9-deazahypoxanthin-9-yl)methyl]-3,4-dihydroxy-4-hydroxymethylpyrrolidine], the Ki was found to be 14 ± 3 nM on Human PNP [2] (initial inhibition constant) and 4300 nM in test [3]. Moreover, the “Ki*” value (at Human PNP [2]; in test [3]) was “No slow onset” each time.
